This is an account of results in ChEMBL document CHEMBL4431306, “Gamma Secretase Modulators: New Alzheimer's Drugs on the Horizon?” (J Med Chem, 2016).

Assay [1] has as its target Gamma-secretase. Nature of the assay: Modulation of gamma-secretase in human SH-SY5Y cells expressing human APP751 assessed as reduction in amyloid beta 42 production after 18 to 22 hrs by sandwich ELISA. In kind it is cell-based.
Assay [2] concerns Mus musculus. Briefly: Reduction in amyloid beta 42 levels in Tg 2576 mouse brain at 50 to 100 mg/kg administered via oral gavage for 3 days by LC-MS/MS analysis. In kind it is functional.
Assay [3] concerns the target Gamma-secretase. Briefly: Modulation of gamma-secretase (unknown origin) assessed as reduction in amyloid beta 42 production by ELISA. In kind it is protein-complex assay, Homo sapiens.
Assay [4] concerns the target Gamma-secretase. Briefly: Modulation of gamma-secretase in human H4 cells expressing human APP751 assessed as reduction in amyloid beta 42 production after 16 to 18 hrs by sandwich ELISA. In kind it is cell-based.
Assay [5] concerns the target Gamma-secretase. Nature of the assay: Modulation of gamma-secretase in human H4 cells expressing APP Swedish mutant assessed as inhibition of amyloid beta (1 to 42 residues) production. Format: cell-based.
For assay [6], the system named is Mus musculus. Briefly: Reduction in amyloid beta 42 levels in mouse brain at 30 mg/kg, po administered as single dose measured 4 hrs post dose by electrochemiluminescence assay. Format: functional.
The target of assay [7] is Gamma-secretase. Briefly: Modulation of gamma-secretase in human SK-N-BE(2) cells expressing human APP695 assessed as reduction in amyloid beta 42 production incubated overnight by sandwich immunoassay. Format: cell-based.
The test system of assay [8] is Mus musculus. Briefly: Reduction in amyloid beta 42 levels in mouse brain at 10 mg/kg, po administered as single dose measured 4 hrs post dose by electrochemiluminescence assay. In kind it is functional.
Assay [9] concerns the target Gamma-secretase. Nature of the assay: Modulation of gamma-secretase in human SH-SY5Y cells expressing human APP751 assessed as reduction in amyloid beta 42 production after 24 hrs by sandwich ELISA. Format: cell-based.
The target of assay [10] is Gamma-secretase. Nature of the assay: Modulation of gamma-secretase in human H4 cells expressing human APP695 assessed as reduction in amyloid beta 42 production after 22 hrs by electrochemiluminescence assay. In kind it is cell-based.
Assay [11] relates to Mus musculus. Briefly: Increase in amyloid beta 38 levels in mouse brain at 30 mg/kg, po administered as single dose measured 4 hrs post dose by ELISA. Format: functional.
Assay [12] concerns Mus musculus. Nature of the assay: Reduction in amyloid beta 42 levels in mouse brain at 30 mg/kg, po administered as single dose measured 4 hrs post dose by ELISA. Format: functional.
In assay [13] the target is Gamma-secretase. Briefly: Modulation of gamma-secretase in human SH-SY5Y cells expressing human APP751 assessed as reduction in amyloid beta 42 production after 16 to 18 hrs by ELISA. In kind it is cell-based.
For assay [14], the system named is Rattus norvegicus. Briefly: Reduction in amyloid beta (1 to 42 residues) AUC in Sprague-Dawley rat brain at 10 mg/kg administered via oral gavage measured up to 24 hrs by UPLC-MS-MS analysis. Format: functional.
Assay [15] concerns Mus musculus. Nature of the assay: Reduction in amyloid beta (1 to 42 residues) AUC in triple transgenic mouse brain at 30 mg/kg administered via oral gavage measured up to 24 hrs by UPLC-MS-MS analysis. Format: functional.
The test system of assay [16] is Mus musculus. Nature of the assay: Reduction in amyloid beta (1 to 42 residues) AUC in triple transgenic mouse brain at 100 mg/kg administered via oral gavage measured up to 24 hrs by UPLC-MS-MS analysis. Format: functional.
Assay [17] relates to Homo sapiens. Nature of the assay: Reduction in amyloid beta (1 to 42 residues) […] in human plasma at 250 mg, po administered as single dose measured up to 24 hrs relative to control. In kind it is functional.
For assay [18], the system named is Homo sapiens. Briefly: Reduction in amyloid beta 42 levels in human plasma at 250 mg, po administered as single dose measured over 24 hrs post dose by sandwich enzyme immunoassay. Format: functional.
Assay [19] is filed under the species Homo sapiens. Briefly: Modulation of gamma-secretase in human H4 cells expressing human APP695 assessed as inhibition of amyloid beta 42 production at 10 uM after 16 hrs by sandwich ELISA. Format: functional.
Assay [20] addresses Gamma-secretase. Briefly: Modulation of gamma-secretase in human H4 cells expressing human APP695 assessed as inhibition of amyloid beta 42 production after 16 hrs by sandwich ELISA. Format: cell-based.

As to `CCN(CC)c1ccc(Nc2nc(-c3ccc(-n4ccnc4)cc3)cs2)c(C)c1`, the EC50 in [1] is 1500 nM. For `CCc1cc(Nc2nc(-c3ccc(-n4cnc(C)c4)c(F)c3)cs2)c(C)cc1C`, in assay [2], the “inhibition (INH)” value is listed as 30 - 40%.

Regarding `CC(=O)O[C@@H]([C@H]1C[C@@H](C)C2=C(O1)[C@H](O)[C@@]1(C)[C@@H]3CC[C@H]4C(C)(C)[C@@H](O[C@@H]5OC[C@@H](O)[C@H](O)[C@H]5O)CC[C@@]45C[C@@]35CC[C@]21C)C(C)(C)O`, the EC50 in assay [3] is 100 nM. Turning to `COc1cc(N2CCC(Nc3ncc4c(n3)N(c3ccccc3)CCO4)CC2)ccn1`, the EC50 in assay [4] came to 25 nM. As to `CNc1nc(Cc2ccccc2)nc(Nc2ccc(-n3cnc(C)c3)c(OC)c2)n1`, the EC50 in [5] was 29 nM. On to `CCn1cc(C(C)N2C(=O)c3ccc(-n4cnc(C)c4)c(=O)n3C[C@H]2C)c2cc(Cl)c(F)cc21` (some centres not stated), for which at 30 mg/kg the inhibition in vivo in [6] was 61%. In [7], the EC50 was determined as 10 nM.

For `Cc1cn(-c2ccc3n(c2=O)C[C@@H](C)N(C(C)c2coc4cc(F)c(C(F)(F)F)cc24)C3=O)cn1` (some centres not stated), in [8], the inhibition in vivo at 10 mg/kg is 42%. Moreover, in assay [7], the EC50 stood at 6 nM. In the case of `CCn1nc2c(c1Nc1nc(-c3ccc(-n4cnc(C)c4)cc3)cs1)CCCC2`, the EC50 in assay [9] stood at 347 nM. On the same count and under the same terms, under `CCn1nc2c(c1Nc1nc(-c3ccc(-n4cnc(C)c4)nc3)cs1)CCCC2` stands 1300 nM. On to `CCN1C(=O)C2CCCCCN2c2nc(Nc3ccc(-n4cnc(C)c4)c(OC)c3)ncc21` (configuration not stated), for which the EC50 in [10] was determined as 46 nM.

`COc1cc2[nH]c(-c3cn4c(n3)C(c3cccc(F)c3C)OCC4)cc2cc1C#N` (configuration not stated) displayed an Activity in [11] of 40%. Also, in [12], the inhibition in vivo at 30 mg/kg turned out to be 66%. In assay [7], the EC50 stood at 20 nM.

Turning to `CCn1nc2c(c1Nc1nc(-c3ccc(-n4cnc(C)c4)c(OC)n3)cs1)CCCC2`, in [9], the EC50 was 30 nM. With `Cc1cn(-c2ccc3n(c2=O)CC2CCC(Cc4cc(C(F)(F)F)cc(C(F)(F)F)c4)N2C3=O)cn1` (configuration not stated), the EC50 in [7] was 50 nM. In turn, `COc1cc2[nH]c(-c3cn4c(n3)C(c3ccccc3C(F)(F)F)OCC4)cc2cc1C#N` (configuration not stated) registered an Activity in assay [11] of 41%. The same compound displayed an inhibition in vivo at 30 mg/kg in assay [12] of 57%. Besides, the EC50 in assay [7] was 45 nM. On to `COc1cc(Nc2ncc3c(n2)N(c2cc(F)cc(F)c2)CCO3)ccc1-n1cnc(C)c1`, for which the EC50 in assay [4] worked out at 14 nM.

Take `COc1cc(Nc2ncc3c(n2)N(C)C2(CCCC2)C(=O)N3CC(F)(F)F)ccc1-n1cnc(C)c1`: the EC50 in assay [10] was 22 nM.

For `COc1cc(Nc2ncc3c(n2)N(C)C2(CC2)CO3)ccc1-n1cnc(C)c1`, the EC50 in assay [4] turned out to be 49 nM. Consider `COc1cc(N2CCC(Nc3ncc4c(n3)N(CC(F)(F)F)CCO4)CC2)ccn1`, for which the EC50 in [4] was found to be 105 nM. For `COc1cc2[nH]c(-c3cn4c(n3)C(c3ccccc3Cl)OCC4)cc2cc1C#N` (configuration not stated), in assay [11], the Activity worked out at 10%. This compound yielded an inhibition in vivo at 30 mg/kg in [12] of 73%. The EC50 in assay [7] is 21 nM. Regarding `COc1cc(-c2csc(N3CCCn4nc5c(c43)CCCC5)n2)ccc1-n1cnc(C)c1`, in assay [13], the EC50 turned out to be 6 nM. For `COc1cc(Nc2ncc3c(n2)N(c2ccccc2)CCO3)ccc1-n1cnc(C)c1`, in [4], the EC50 was found to be 39 nM. Same read-out and setting: under `Cc1cc([C@@H]2CC[C@@H](Nc3ncc4c(n3)N(c3ccccc3Cl)CCO4)CO2)ccn1` stands 41 nM. Consider `COc1cc(Nc2nc3c(c(N4CCCCC4)n2)SC2(CCC2)C3)ccc1-n1cnc(C)c1`, for which the EC50 in assay [10] came to 90 nM. Consider `COc1cc(Nc2ncc3c(n2)N2CCCC2CO3)ccc1-n1cnc(C)c1` (configuration not stated), for which the EC50 in assay [4] stood at 71 nM. In assay [14], `COc1cc(Nc2nc3n(n2)CCCC[C@H]3c2ccc(F)cc2)ccc1-n1cnc(C)c1` gave an inhibition in vivo at 10 mg/kg of 47%. Also, the inhibition in vivo at 30 mg/kg in assay [15] came out at 31%. Besides, in [5], the EC50 is 6 nM. In assay [16], this compound returned an inhibition in vivo at 100 mg/kg of 55%. As to `COc1cc(Nc2ncc3c(n2)N(CC(F)(F)F)CCO3)ccc1-n1cnc(C)c1`, in assay [4], the EC50 was found to be 101 nM. For `COc1cc(Nc2ncc3c(n2)N(C)[C@@H](c2ccccc2)CO3)ccc1-n1cnc(C)c1`, the EC50 in [4] came out at 16 nM. As to `COc1nc(/C=C/c2nc3n(n2)CCC[C@H]3c2ccccc2C(F)(F)F)ccc1-n1cnc(C)c1` [E-2212], the “inhibition (INH)” value was 44% in assay [17] and 54% in [18]. For `C[C@H](CCC(=O)O)[C@H]1CC[C@H]2[C@@H]3CC[C@@H]4C[C@H](O)CC[C@]4(C)[C@H]3CC[C@]12C` [LITHOCHOLIC ACID], the inhibition at 10 µM in [19] was found to be 62%.

As to `C[C@H](CCC(=O)O)[C@H]1CC[C@H]2[C@@H]3CC[C@@H]4CCCC[C@]4(C)[C@H]3CC[C@]12C` [URSOCHOLANIC ACID], the EC50 in assay [20] came to 5700 nM.
